Measurements: patent US20190375766A1, “PROCESS FOR PREPARING HALOGENATED BICYCLIC SYSTEMS” (Bayer CropScience Aktiengesellschaft, priority 2016, published 2019)

Assay: log P by HPLC-MS
Type: physicochemical

chromatographic logP | SMILES
1.09 | Cn1cnc2cc(C(F)(F)F)ncc21 [Example 1, 3-methyl-6-(trifluoromethyl)-3H-imidazo[4,5-c]pyridine]
1.44 | Cn1cnc2cc(C(F)(F)F)cnc21 [Example 6, 3-methyl-6-(trifluoromethyl)-3H-imidazo[4,5-b]pyridine]
1.71 | Cn1c(Br)nc2cc(C(F)(F)F)ncc21 [Example 3, 2-bromo-3-methyl-6-(trifluoromethyl)-3H-imidazo[4,5-c]pyridine]
1.66 | Cn1c(I)nc2cc(C(F)(F)F)nnc21 [Example 5, 6-iodo-7-methyl-3-(trifluoromethyl)-7H-imidazo[4,5-c]pyridazine]
2.29 | Cn1c(I)nc2cc(C(F)(F)F)cnc21 [Example 7, 2-iodo-3-methyl-6-(trifluoromethyl)-3H-imidazo[4,5-b]pyridine]
0.91 | Cn1cnc2cc(C(F)(F)F)nnc21 [Example 4, 7-methyl-3-(trifluoromethyl)-7H-imidazo[4,5-c]pyridazine]
1.77 | Cn1c(I)nc2cc(C(F)(F)F)ncc21 [Example 2, 2-iodo-3-methyl-6-(trifluoromethyl)-3H-imidazo[4,5-c]pyridine]
